From ChEMBL document CHEMBL5291721, “A preclinical secondary pharmacology resource illuminates target-adverse drug reaction associations of marketed drugs” (Nat Commun, 2023) come the findings set out here.

Structures are written as SMILES.

One may read the AC50 as the midpoint of the concentration-response curve, whichever way the signal moves. Lower therefore signals activity at low concentration.

Test [1] concerns the target T1, Muscarinic acetylcholine receptor M2 (Homo sapiens, UniProt P08172).
T1 sequence (P08172 whole entry): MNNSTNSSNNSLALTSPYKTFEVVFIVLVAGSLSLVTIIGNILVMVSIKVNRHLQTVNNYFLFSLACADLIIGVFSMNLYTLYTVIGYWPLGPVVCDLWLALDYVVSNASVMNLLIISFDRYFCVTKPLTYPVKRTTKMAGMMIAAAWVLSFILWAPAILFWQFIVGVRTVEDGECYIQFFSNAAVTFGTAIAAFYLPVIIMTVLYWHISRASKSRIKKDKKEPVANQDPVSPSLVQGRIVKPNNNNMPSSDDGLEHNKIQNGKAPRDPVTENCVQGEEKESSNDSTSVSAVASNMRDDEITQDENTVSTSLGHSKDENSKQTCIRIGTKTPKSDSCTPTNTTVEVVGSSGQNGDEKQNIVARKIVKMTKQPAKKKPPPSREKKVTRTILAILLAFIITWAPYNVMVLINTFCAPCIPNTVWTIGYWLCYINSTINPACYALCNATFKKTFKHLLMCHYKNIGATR
It counts as functional, cell-based.

For test [2], the target named is Epidermal growth factor receptor (Homo sapiens, UniProt P00533). It counts as functional.
Chain of Epidermal growth factor receptor (P00533 whole entry): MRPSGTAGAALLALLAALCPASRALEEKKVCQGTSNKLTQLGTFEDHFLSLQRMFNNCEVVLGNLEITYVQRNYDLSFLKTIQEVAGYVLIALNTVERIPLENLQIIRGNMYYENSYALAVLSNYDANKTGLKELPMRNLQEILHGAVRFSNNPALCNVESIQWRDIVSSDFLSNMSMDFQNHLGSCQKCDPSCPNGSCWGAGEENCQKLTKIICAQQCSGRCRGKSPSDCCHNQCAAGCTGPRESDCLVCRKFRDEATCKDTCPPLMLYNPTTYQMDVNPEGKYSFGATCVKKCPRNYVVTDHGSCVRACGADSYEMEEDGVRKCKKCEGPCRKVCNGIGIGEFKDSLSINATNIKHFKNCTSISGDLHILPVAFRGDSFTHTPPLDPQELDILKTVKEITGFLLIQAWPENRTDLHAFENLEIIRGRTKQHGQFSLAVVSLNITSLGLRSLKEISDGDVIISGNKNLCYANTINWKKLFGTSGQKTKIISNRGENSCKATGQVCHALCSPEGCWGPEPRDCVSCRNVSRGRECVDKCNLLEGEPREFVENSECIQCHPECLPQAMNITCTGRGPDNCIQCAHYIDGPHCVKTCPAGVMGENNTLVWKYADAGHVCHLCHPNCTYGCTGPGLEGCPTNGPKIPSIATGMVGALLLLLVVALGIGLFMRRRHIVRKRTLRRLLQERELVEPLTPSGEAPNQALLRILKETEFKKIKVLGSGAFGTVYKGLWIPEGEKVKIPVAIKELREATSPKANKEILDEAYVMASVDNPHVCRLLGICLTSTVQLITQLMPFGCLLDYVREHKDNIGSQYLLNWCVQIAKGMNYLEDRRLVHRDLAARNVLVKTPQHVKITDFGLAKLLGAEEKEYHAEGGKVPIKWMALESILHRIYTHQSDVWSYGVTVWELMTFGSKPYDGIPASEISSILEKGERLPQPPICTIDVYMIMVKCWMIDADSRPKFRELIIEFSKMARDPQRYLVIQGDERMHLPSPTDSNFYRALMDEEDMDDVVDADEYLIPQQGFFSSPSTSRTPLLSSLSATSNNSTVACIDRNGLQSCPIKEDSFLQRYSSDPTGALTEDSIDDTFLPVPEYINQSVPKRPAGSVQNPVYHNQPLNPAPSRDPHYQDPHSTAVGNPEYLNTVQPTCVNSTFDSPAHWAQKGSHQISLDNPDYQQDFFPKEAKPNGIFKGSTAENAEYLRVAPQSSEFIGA
The target in test [3] is Receptor tyrosine-protein kinase erbB-2 (Homo sapiens, UniProt P04626). It is filed as functional.
Chain of Receptor tyrosine-protein kinase erbB-2 (P04626 whole entry): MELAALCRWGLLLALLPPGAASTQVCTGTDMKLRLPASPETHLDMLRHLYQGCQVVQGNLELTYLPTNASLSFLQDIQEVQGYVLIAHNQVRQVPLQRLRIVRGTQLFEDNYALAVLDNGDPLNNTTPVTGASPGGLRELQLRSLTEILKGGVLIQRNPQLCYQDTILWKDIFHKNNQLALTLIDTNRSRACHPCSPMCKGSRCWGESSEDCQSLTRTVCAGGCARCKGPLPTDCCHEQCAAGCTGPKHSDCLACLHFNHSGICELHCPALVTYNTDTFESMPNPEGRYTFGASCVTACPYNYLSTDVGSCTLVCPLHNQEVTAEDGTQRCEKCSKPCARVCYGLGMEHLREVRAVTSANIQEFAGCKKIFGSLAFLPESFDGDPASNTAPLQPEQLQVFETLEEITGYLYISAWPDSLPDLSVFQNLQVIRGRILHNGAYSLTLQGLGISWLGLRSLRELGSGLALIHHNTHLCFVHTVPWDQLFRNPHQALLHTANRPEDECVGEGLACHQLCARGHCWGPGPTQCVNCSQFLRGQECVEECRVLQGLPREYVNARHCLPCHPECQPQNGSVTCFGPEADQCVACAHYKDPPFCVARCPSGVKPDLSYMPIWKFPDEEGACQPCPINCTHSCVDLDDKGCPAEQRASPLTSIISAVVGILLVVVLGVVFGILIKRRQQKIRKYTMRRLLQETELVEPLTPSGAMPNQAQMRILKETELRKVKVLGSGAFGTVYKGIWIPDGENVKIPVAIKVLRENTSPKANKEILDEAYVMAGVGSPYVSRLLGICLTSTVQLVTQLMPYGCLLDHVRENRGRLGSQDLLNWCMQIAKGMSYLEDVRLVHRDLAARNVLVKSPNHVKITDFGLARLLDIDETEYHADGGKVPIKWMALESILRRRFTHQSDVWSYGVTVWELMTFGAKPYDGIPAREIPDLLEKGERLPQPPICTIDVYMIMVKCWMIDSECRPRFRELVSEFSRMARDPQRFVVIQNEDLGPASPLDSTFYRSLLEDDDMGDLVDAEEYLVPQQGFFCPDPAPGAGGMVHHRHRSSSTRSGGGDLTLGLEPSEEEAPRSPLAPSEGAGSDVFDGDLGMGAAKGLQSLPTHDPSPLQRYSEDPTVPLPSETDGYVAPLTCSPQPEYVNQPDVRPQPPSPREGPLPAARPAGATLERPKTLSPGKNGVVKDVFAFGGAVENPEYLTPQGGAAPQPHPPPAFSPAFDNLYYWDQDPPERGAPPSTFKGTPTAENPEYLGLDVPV
In test [4] the target is T2, Estrogen receptor (Homo sapiens, UniProt P03372).
T2 sequence (P03372 whole entry): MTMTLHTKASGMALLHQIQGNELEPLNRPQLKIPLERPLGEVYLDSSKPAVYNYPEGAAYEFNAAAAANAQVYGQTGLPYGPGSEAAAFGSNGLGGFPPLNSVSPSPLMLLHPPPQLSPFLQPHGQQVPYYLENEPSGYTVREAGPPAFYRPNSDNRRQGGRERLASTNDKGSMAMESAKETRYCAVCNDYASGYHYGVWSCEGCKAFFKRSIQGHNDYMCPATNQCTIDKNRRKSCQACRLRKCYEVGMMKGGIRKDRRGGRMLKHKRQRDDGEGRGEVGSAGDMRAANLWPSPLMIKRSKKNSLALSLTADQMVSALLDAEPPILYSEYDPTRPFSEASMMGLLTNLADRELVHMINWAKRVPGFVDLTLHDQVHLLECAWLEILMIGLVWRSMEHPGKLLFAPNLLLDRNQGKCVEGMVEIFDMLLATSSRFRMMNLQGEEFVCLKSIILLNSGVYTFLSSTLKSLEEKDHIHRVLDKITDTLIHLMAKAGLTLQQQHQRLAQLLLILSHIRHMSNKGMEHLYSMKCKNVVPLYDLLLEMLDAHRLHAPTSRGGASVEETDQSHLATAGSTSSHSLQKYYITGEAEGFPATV
It is filed as functional.

The target of test [5] is T3, Gamma-aminobutyric acid receptor subunit alpha-1/alpha-2/beta-2/gamma-2 (Homo sapiens, UniProt P14867+P18507+P47869+P47870). It is filed as functional, cell-based.
The target in test [6] is T3, Gamma-aminobutyric acid receptor subunit alpha-1/alpha-2/beta-2/gamma-2. It counts as functional, cell-based. This is another data set of the same source.
In test [7] the target is 5-hydroxytryptamine receptor 2A (Homo sapiens, UniProt P28223). It counts as functional, cell-based.
Chain of 5-hydroxytryptamine receptor 2A (P28223 whole entry): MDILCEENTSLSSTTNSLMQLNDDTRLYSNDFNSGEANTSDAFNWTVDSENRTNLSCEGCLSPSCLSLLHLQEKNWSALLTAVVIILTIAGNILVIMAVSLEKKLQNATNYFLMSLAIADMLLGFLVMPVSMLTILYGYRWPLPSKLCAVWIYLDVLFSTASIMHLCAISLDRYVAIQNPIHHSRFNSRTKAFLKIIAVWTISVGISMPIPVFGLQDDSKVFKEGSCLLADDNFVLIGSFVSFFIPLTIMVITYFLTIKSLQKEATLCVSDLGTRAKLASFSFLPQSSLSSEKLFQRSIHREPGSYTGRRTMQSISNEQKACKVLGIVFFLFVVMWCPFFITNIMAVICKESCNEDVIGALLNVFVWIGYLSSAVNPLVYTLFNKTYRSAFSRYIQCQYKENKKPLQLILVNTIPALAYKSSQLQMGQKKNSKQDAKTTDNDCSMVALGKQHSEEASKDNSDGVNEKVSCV
Test [8] deals with T4, Glucocorticoid receptor (Homo sapiens, UniProt P04150).
T4 sequence (P04150 whole entry): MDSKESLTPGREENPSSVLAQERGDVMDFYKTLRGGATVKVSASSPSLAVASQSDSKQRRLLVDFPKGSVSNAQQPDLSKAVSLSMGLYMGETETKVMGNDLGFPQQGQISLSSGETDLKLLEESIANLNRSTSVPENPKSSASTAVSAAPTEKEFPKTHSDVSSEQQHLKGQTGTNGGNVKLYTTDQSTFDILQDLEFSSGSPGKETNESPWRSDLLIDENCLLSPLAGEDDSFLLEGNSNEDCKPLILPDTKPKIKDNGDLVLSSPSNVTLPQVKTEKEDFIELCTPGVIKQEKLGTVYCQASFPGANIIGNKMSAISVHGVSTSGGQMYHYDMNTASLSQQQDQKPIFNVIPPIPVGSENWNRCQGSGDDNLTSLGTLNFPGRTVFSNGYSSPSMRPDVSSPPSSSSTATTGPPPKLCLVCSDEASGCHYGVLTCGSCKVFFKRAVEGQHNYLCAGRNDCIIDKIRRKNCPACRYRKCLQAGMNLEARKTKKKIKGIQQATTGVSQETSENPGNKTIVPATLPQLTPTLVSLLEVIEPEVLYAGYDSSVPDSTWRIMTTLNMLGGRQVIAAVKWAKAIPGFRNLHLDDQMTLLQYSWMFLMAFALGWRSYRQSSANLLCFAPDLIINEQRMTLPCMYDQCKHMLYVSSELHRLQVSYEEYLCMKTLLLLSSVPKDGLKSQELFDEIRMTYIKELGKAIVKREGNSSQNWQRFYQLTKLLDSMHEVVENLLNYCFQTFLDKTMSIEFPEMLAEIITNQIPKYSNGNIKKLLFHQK
It counts as functional.

Test [9] has as its target Sodium channel protein type 5 subunit alpha (Homo sapiens, UniProt Q14524). It is filed as functional, cell-based.
The target in test [10] is T3, Gamma-aminobutyric acid receptor subunit alpha-1/alpha-2/beta-2/gamma-2. It counts as protein-complex assay.
Note: assay procedure not described here.

Chain of Sodium channel protein type 5 subunit alpha (Q14524 whole entry): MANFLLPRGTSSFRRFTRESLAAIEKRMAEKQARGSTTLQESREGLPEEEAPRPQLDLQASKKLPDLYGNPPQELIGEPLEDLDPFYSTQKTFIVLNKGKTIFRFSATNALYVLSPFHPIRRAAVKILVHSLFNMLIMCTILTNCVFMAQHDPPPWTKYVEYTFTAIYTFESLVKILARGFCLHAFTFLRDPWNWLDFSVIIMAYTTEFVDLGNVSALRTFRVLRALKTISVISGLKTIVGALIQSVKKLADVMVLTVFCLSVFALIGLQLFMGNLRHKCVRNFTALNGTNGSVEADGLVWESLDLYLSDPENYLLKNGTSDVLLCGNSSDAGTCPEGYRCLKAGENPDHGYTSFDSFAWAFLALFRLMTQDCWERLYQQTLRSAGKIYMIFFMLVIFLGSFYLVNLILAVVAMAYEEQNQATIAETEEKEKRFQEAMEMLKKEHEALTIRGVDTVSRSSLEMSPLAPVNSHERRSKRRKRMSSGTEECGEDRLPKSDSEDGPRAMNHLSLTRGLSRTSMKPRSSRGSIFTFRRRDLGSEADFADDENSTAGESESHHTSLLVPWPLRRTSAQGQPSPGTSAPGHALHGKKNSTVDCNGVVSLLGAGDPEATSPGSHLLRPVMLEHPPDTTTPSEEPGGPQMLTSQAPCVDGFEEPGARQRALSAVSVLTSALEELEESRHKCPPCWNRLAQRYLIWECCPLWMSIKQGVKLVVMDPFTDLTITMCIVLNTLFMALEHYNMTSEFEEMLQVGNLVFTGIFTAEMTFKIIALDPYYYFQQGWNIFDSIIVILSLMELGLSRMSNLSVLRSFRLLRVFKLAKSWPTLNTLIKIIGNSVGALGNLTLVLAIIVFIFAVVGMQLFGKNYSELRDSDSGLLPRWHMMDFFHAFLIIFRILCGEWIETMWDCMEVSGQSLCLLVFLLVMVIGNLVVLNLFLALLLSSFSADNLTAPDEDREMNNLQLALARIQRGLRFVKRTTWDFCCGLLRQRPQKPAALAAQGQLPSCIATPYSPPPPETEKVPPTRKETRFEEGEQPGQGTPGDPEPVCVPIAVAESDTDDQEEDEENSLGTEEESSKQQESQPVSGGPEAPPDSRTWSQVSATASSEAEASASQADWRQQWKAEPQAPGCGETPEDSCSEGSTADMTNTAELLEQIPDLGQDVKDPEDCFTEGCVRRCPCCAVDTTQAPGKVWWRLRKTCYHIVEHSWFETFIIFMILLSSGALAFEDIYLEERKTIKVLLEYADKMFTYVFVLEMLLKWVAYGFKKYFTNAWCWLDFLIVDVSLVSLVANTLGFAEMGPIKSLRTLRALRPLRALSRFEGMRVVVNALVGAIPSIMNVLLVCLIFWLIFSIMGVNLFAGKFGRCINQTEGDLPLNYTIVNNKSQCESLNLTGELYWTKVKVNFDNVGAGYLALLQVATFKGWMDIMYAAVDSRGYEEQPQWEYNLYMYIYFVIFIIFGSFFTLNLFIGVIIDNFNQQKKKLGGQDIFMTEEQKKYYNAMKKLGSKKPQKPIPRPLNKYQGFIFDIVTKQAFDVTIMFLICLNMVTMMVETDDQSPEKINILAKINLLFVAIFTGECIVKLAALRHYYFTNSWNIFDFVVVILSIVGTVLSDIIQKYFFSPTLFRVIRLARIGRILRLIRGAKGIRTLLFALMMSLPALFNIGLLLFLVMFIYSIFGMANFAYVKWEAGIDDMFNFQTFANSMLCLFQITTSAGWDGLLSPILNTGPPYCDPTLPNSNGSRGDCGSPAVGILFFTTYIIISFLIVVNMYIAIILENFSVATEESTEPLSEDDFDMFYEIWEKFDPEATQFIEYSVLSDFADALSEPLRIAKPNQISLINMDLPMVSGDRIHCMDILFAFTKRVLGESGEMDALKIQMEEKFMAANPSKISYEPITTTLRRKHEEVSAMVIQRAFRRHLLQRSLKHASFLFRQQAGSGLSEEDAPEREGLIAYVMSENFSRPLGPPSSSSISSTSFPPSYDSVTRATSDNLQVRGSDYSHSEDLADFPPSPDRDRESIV

For the compound `C[C@H](Nc1ncnc2[nH]cnc12)c1cc2cccc(Cl)c2c(=O)n1-c1ccccc1` [DUVELISIB], the AC50 in test [1], in [2], in [3], in test [4], in [5] and in test [6] was greater than 30 µM throughout. Moreover, the AC50 was 18 µM in test [7], greater than 30 µM in test [8] and greater than 50 µM in [9].

As for `O=C1[C@@H]2[C@H]3CC[C@H](C3)[C@@H]2C(=O)N1C[C@@H]1CCCC[C@H]1CN1CCN(c2nsc3ccccc23)CC1` [LURASIDONE], the AC50 in [2], in [3], in test [4], in [5], in test [6] and in test [10] was greater than 30 µM throughout. The AC50 was greater than 10 µM in test [8] and 41 µM in [9].

For `CO[C@@H]1[C@@H](OC(N)=O)[C@@H](O)[C@H](Oc2ccc3c(O)c(NC(=O)c4ccc(O)c(CC=C(C)C)c4)c(=O)oc3c2C)OC1(C)C` [NOVOBIOCIN], the AC50 in [1], in test [2], in [3], in test [4], in test [5] and in test [6] was greater than 30 µM each time. The figures for the AC50 in [7], in [8] and in test [9] were greater than 30 µM, greater than 30 µM and greater than 50 µM, respectively.
